Assay [1] has as its system Haemophilus influenzae C.L. The conditions noted are these: agar dilution. On the technique in general: In agar dilution, organisms are placed on agar that contains the substance at set levels.
Assay [2] deals with Staphylococcus aureus V41. The conditions noted are these: agar dilution.
Assay [3] has as its system Staphylococcus epidermidis EPI1. The conditions noted are these: agar dilution.
Assay [4] deals with Staphylococcus aureus X400. The note with it: agar dilution.
Assay [5] deals with Streptococcus pyogenes C203. The note with it: agar dilution.
Assay [6] deals with Haemophilus influenzae 76. The conditions noted are these: agar dilution.
Assay [7] deals with Staphylococcus aureus S13E. The conditions noted are these: agar dilution.
Assay [8] concerns Streptococcus sp. group D 2041. The conditions noted are these: agar dilution.
Assay [9] concerns Streptococcus pyogenes. The assay can be described thus: Experimental bacterial infection in mice, ED50. The format is in vivo. The note with it: two doses, administered subcutaneously.
The subject of assay [10] is Streptococcus pneumoniae. The assay can be described thus: Experimental bacterial infection in mice, ED50. The class given is in vivo. The note with it: two doses, administered subcutaneously.
The subject of assay [11] is Escherichia coli EC14. The note with it: agar dilution.
For assay [12], the system named is Staphylococcus aureus. The assay can be described thus: Experimental bacterial infection in mice, ED50. The conditions noted are these: two doses, administered subcutaneously. The class given is in vivo.
Assay [13] has as its system Klebsiella pneumoniae KAE. The conditions noted are these: agar dilution.
Assay [14] deals with Streptococcus faecium ATCC 9790. The note with it: agar dilution.
The test system of assay [15] is Escherichia coli TEM. The conditions noted are these: agar dilution.
Assay [16] has as its system Staphylococcus aureus NRRL B313. The note with it: agar dilution.
Assay [17] relates to Streptococcus pneumoniae Park 1. The conditions noted are these: agar dilution.
Assay [18] relates to Klebsiella pneumoniae X68. The note with it: agar dilution.
For assay [19], the system named is Staphylococcus epidermidis 222. The note with it: agar dilution.
The test system of assay [20] is Klebsiella pneumoniae X26. The conditions noted are these: agar dilution.
The subject of assay [21] is Escherichia coli N10. The note with it: agar dilution.

Structures are written as SMILES. Converted amounts (≈) assume the structure as drawn.

For `CCCCCC(=O)NC1(C)CC(OC2C(Oc3c4cc5cc3Oc3ccc(cc3Cl)C(O)C3NC(=O)C(NC(=O)C5NC(=O)C(CC(N)=O)NC(=O)C(NC(=O)C(CC(C)C)NC)C(O)c5ccc(c(Cl)c5)O4)c4ccc(O)c(c4)-c4c(O)cc(O)cc4C(C(=O)O)NC3=O)OC(CO)C(O)C2O)OC(C)C1O` (stereo not drawn) [Compound 2, N^van --(1-oxo-n-hexyl)vancomycin], the MIC result was “-- (not active at 128 mcg/ml)” in [1]; 4 µg/mL (≈ 2.58 µM) in assay [2]; 16 µg/mL (≈ 10.3 µM) in assay [3]; 4 µg/mL (≈ 2.58 µM) in [4]; 2 µg/mL (≈ 1.29 µM) in assay [5]; 128 µg/mL (≈ 82.7 µM) in assay [6]. Further, the MIC was 4 µg/mL (≈ 2.58 µM) in assay [7]; 16 µg/mL (≈ 10.3 µM) in [8]; “-- (not active at 128 mcg/ml)” in assay [11]; “-- (not active at 128 mcg/ml)” in assay [13]; 4 µg/mL (≈ 2.58 µM) in assay [14]; “-- (not active at 128 mcg/ml)” in assay [15]. The MIC in [16] is 2 µg/mL (≈ 1.29 µM); in assay [17], 2 µg/mL (≈ 1.29 µM); in [18], “-- (not active at 128 mcg/ml)”; in assay [19] it was 8 µg/mL (≈ 5.17 µM); in assay [20] it was “-- (not active at 128 mcg/ml)”; in assay [21], “-- (not active at 128 mcg/ml)”. Further, the ED50 in assay [9] was found to be 12.9 mg/kg/2; in assay [10], 3.5 mg/kg/2; in assay [12], 11.2 mg/kg/2.
`CCCCCCCCCCCCCC(=O)NC1(C)CC(OC2C(Oc3c4cc5cc3Oc3ccc(cc3Cl)C(O)C3NC(=O)C(NC(=O)C5NC(=O)C(CC(N)=O)NC(=O)C(NC(=O)C(CC(C)C)NC)C(O)c5ccc(c(Cl)c5)O4)c4ccc(O)c(c4)-c4c(O)cc(O)cc4C(C(=O)O)NC3=O)OC(CO)C(O)C2O)OC(C)C1O` (stereo not drawn) [Compound 14, N^van --(1-oxo-n-tetradecyl)vancomycin]: the MIC in [1] stood at 128 µg/mL (≈ 77.1 µM); in [2], 2 µg/mL (≈ 1.21 µM); in [3], 8 µg/mL (≈ 4.82 µM); in assay [4] it was 2 µg/mL (≈ 1.21 µM); in assay [5], 2 µg/mL (≈ 1.21 µM); in assay [6] it was 128 µg/mL (≈ 77.1 µM). In addition, the MIC in [7] was 0.5 µg/mL (≈ 0.301 µM); in [8] it was 0.5 µg/mL (≈ 0.301 µM); in assay [11], “-- (not active at 128 mcg/ml)”; in assay [13], “-- (not active at 128 mcg/ml)”; in assay [14] it was 0.5 µg/mL (≈ 0.301 µM); in [15], “-- (not active at 128 mcg/ml)”. In addition, the MIC in assay [16] is 2 µg/mL (≈ 1.21 µM); in [17], 2 µg/mL (≈ 1.21 µM); in [18] it was “-- (not active at 128 mcg/ml)”; in [19], 2 µg/mL (≈ 1.21 µM); in [20], “-- (not active at 128 mcg/ml)”; in assay [21], “-- (not active at 128 mcg/ml)”. Moreover, the ED50 in assay [9] is given as 1.4 mg/kg/2; in assay [10] it was 1.3 mg/kg/2; in [12] it was 6.6 mg/kg/2.
As for `CCCCCCCCCCCC(=O)NC1(C)CC(OC2C(Oc3c4cc5cc3Oc3ccc(cc3Cl)C(O)C3NC(=O)C(NC(=O)C5NC(=O)C(CC(N)=O)NC(=O)C(NC(=O)C(CC(C)C)NC)C(O)c5ccc(c(Cl)c5)O4)c4ccc(O)c(c4)-c4c(O)cc(O)cc4C(C(=O)O)NC3=O)OC(CO)C(O)C2O)OC(C)C1O` (stereo not drawn) [Compound 12, N^van --(1-oxo-n-dodecyl)vancomycin], the MIC result in assay [1] was “-- (not active at 128 mcg/ml)”; in assay [2], 0.25 µg/mL (≈ 0.153 µM); in assay [3], 2 µg/mL (≈ 1.23 µM); in assay [4], 0.5 µg/mL (≈ 0.306 µM); in [5], 0.5 µg/mL (≈ 0.306 µM); in [6] it was “-- (not active at 128 mcg/ml)”. For the same compound, the MIC in [7] is 0.5 µg/mL (≈ 0.306 µM); in [8] it was 0.5 µg/mL (≈ 0.306 µM); in [11] it was “-- (not active at 128 mcg/ml)”; in assay [13], “-- (not active at 128 mcg/ml)”; in assay [14] it was 0.5 µg/mL (≈ 0.306 µM); in assay [15], “-- (not active at 128 mcg/ml)”. The MIC in assay [16] is 0.25 µg/mL (≈ 0.153 µM); in assay [17], 0.5 µg/mL (≈ 0.306 µM); in [18] it was “-- (not active at 128 mcg/ml)”; in [19], 0.5 µg/mL (≈ 0.306 µM); in assay [20] it was “-- (not active at 128 mcg/ml)”; in assay [21] it was “-- (not active at 128 mcg/ml)”. The ED50 was 1.6 mg/kg/2 in assay [9], 0.9 mg/kg/2 in assay [10] and 6.8 mg/kg/2 in assay [12].
Regarding `CN[C@H](CC(C)C)C(=O)N[C@H]1C(=O)N[C@@H](CC(N)=O)C(=O)N[C@H]2C(=O)N[C@H]3C(=O)N[C@H](C(=O)N[C@H](C(=O)O)c4cc(O)cc(O)c4-c4cc3ccc4O)[C@H](O)c3ccc(c(Cl)c3)Oc3cc2cc(c3O[C@@H]2O[C@H](CO)[C@@H](O)[C@H](O)[C@H]2O[C@H]2C[C@](C)(N)[C@H](O)[C@H](C)O2)Oc2ccc(cc2Cl)[C@H]1O` [vancomycin, reference compound], the ED50 in assay [9] is listed as 0.99-1.1 mg/kg/2; in assay [10] it was 0.90-0.93 mg/kg/2; in assay [12], 1.8-3.7 mg/kg/2.
In the case of `CNC(CC(C)C)C(=O)NC1C(=O)NC(CC(N)=O)C(=O)NC2C(=O)NC3C(=O)NC(C(=O)NC(C(=O)O)c4cc(O)cc(O)c4-c4cc3ccc4O)C(O)c3ccc(c(Cl)c3)Oc3cc2cc(c3OC2OC(CO)C(O)C(O)C2OC2CC(C)(NC(=O)CC(C)C)C(O)C(C)O2)Oc2ccc(cc2Cl)C1O` (stereo not drawn) [Compound 34, N^van --(1-oxo-isopentyl)vancomycin], the MIC entry in assay [1] is “-- (not active at 128 mcg/ml)”; in assay [2] it was 2 µg/mL (≈ 1.3 µM); in assay [3] it was 8 µg/mL (≈ 5.22 µM); in assay [4], 2 µg/mL (≈ 1.3 µM); in [5], 1 µg/mL (≈ 0.652 µM); in [6] it was “-- (not active at 128 mcg/ml)”. The MIC in assay [7] is 2 µg/mL (≈ 1.3 µM); in [8], 8 µg/mL (≈ 5.22 µM); in [11], “-- (not active at 128 mcg/ml)”; in assay [13] it was “-- (not active at 128 mcg/ml)”; in [14], 2 µg/mL (≈ 1.3 µM); in [15], “-- (not active at 128 mcg/ml)”. Moreover, the MIC is 2 µg/mL (≈ 1.3 µM) in assay [16]; 1 µg/mL (≈ 0.652 µM) in [17]; “-- (not active at 128 mcg/ml)” in [18]; 4 µg/mL (≈ 2.61 µM) in [19]; “-- (not active at 128 mcg/ml)” in assay [20]; “-- (not active at 128 mcg/ml)” in [21].
For the compound `C=CCCCCCCCCC(=O)NC1(C)CC(OC2C(Oc3c4cc5cc3Oc3ccc(cc3Cl)C(O)C(NC(=O)C(CC(C)C)N(C)C(=O)CCCCCCCCC=C)C(=O)NC(CC(N)=O)C(=O)NC5C(=O)NC3C(=O)NC(C(=O)NC(C(=O)O)c5cc(O)cc(O)c5-c5cc3ccc5O)C(O)c3ccc(c(Cl)c3)O4)OC(CO)C(O)C2O)OC(C)C1O` (stereo not drawn) [Compound 11, N^van,N^leu --(1-oxo-10-n-decenyl)vancomycin], the MIC in assay [1] amounted to 32 µg/mL (≈ 18 µM); in assay [2], 8 µg/mL (≈ 4.49 µM); in [3], 64 µg/mL (≈ 35.9 µM); in assay [4] it was 16 µg/mL (≈ 8.98 µM); in [5], 2 µg/mL (≈ 1.12 µM); in [6] it was 32 µg/mL (≈ 18 µM). For the same compound, the MIC was determined as 8 µg/mL (≈ 4.49 µM) in assay [7]; 16 µg/mL (≈ 8.98 µM) in [8]; 128 µg/mL (≈ 71.8 µM) in [11]; 128 µg/mL (≈ 71.8 µM) in [13]; 8 µg/mL (≈ 4.49 µM) in assay [14]; 64 µg/mL (≈ 35.9 µM) in assay [15]. Moreover, the MIC in assay [16] was determined as 8 µg/mL (≈ 4.49 µM); in [17] it was 4 µg/mL (≈ 2.24 µM); in assay [18] it was 128 µg/mL (≈ 71.8 µM); in assay [19], 16 µg/mL (≈ 8.98 µM); in assay [20] it was 128 µg/mL (≈ 71.8 µM); in assay [21] it was 128 µg/mL (≈ 71.8 µM).
Take `CNC(CC(C)C)C(=O)NC1C(=O)NC(CC(N)=O)C(=O)NC2C(=O)NC3C(=O)NC(C(=O)NC(C(=O)O)c4cc(O)cc(O)c4-c4cc3ccc4O)C(O)c3ccc(c(Cl)c3)Oc3cc2cc(c3OC2OC(CO)C(O)C(O)C2OC2CC(C)(NC(=O)C(NC(=O)OCc3ccccc3)C(C)C)C(O)C(C)O2)Oc2ccc(cc2Cl)C1O` (stereo not drawn) [Compound 32, N^van-[2-(N--Cbz--amino)-1-oxo-isopentyl]vancomycin]: the MIC in assay [1] amounted to 128 µg/mL (≈ 76.1 µM); in assay [2], 4 µg/mL (≈ 2.38 µM); in assay [3], 32 µg/mL (≈ 19 µM); in assay [4], 8 µg/mL (≈ 4.75 µM); in assay [5] it was 2 µg/mL (≈ 1.19 µM); in assay [6], 128 µg/mL (≈ 76.1 µM). The MIC is 4 µg/mL (≈ 2.38 µM) in [7]; 8 µg/mL (≈ 4.75 µM) in assay [8]; “-- (not active at 128 mcg/ml)” in [11]; “-- (not active at 128 mcg/ml)” in assay [13]; 4 µg/mL (≈ 2.38 µM) in assay [14]; “-- (not active at 128 mcg/ml)” in assay [15]. Further, the MIC in assay [16] is 4 µg/mL (≈ 2.38 µM); in assay [17], 2 µg/mL (≈ 1.19 µM); in [18], “-- (not active at 128 mcg/ml)”; in assay [19], 8 µg/mL (≈ 4.75 µM); in assay [20] it was “-- (not active at 128 mcg/ml)”; in assay [21], “-- (not active at 128 mcg/ml)”.

Source of the values: patent US4639433A, “Glycopeptide derivatives” (Eli Lilly and Company, priority 1985, dated 1987).
